Data from ChEMBL document CHEMBL5678818, “Discovery of potent SOS1 inhibitors that block RAS activation via disruption of the RAS-SOS1 interaction” (Proc Natl Acad Sci U S A, 2019).

Experiments:
[1] = molecular target: Phosphatidylinositol 4-phosphate 5-kinase type-1 alpha (Homo sapiens) (UniProt Q99755); test: Inhibition of PIP5K1A (unknown origin) assessed as residual activity at 100 nM by KINOMEscan analysis relative to control
[2] = molecular target: Death-associated protein kinase 1 (Homo sapiens) (UniProt P53355); test: Inhibition of DAPK1 (unknown origin) assessed as residual activity at 100 nM by KINOMEscan analysis relative to control
[3] = molecular target: T1, Activin receptor type-1B (Homo sapiens) (UniProt P36896); test: Inhibition of ACVR1B (unknown origin) assessed as residual activity at 100 nM by KINOMEscan analysis relative to control
T1 sequence (whole entry): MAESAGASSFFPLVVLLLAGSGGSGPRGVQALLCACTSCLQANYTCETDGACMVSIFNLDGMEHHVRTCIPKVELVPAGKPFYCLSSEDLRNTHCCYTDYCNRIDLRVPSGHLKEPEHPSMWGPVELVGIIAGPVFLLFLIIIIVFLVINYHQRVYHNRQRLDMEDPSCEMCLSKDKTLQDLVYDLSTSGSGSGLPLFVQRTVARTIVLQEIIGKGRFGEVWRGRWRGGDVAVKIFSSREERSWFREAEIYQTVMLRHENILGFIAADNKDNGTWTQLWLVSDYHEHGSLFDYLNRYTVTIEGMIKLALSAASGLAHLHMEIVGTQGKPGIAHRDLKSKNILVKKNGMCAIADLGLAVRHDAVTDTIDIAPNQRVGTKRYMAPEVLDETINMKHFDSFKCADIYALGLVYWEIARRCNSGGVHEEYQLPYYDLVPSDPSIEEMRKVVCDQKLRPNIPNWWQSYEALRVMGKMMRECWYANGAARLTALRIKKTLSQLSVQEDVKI

[4] = molecular target: T2, Serine/threonine-protein kinase DCLK3 (Homo sapiens) (UniProt Q9C098); test: Inhibition of DCAMKL3 (unknown origin) assessed as residual activity at 100 nM by KINOMEscan analysis relative to control
T2 sequence (whole entry): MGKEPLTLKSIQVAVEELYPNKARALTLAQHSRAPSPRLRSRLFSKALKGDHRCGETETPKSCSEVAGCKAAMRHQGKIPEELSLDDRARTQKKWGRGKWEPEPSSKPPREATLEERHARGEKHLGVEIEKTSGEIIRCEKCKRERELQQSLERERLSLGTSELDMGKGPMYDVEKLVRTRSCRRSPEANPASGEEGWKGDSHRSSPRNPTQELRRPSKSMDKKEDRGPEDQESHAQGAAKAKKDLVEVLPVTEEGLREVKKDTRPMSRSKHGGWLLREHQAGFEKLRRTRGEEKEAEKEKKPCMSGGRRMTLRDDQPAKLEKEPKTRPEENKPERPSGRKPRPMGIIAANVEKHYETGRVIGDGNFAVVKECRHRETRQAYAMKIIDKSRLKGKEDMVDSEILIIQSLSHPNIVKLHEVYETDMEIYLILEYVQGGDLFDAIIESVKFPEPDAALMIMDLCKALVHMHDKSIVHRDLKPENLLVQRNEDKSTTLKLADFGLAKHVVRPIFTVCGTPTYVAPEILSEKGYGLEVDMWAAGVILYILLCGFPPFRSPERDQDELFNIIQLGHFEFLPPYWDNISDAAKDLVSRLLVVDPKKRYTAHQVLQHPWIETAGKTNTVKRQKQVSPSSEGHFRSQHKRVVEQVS

[5] = molecular target: Serine/threonine-protein kinase 32C (Homo sapiens) (UniProt Q86UX6); test: Inhibition of YANK3 (unknown origin) assessed as residual activity at 100 nM by KINOMEscan analysis relative to control
[6] = molecular target: Dual specificity tyrosine-phosphorylation-regulated kinase 1B (Homo sapiens) (UniProt Q9Y463); test: Inhibition of DYRK1B (unknown origin) assessed as residual activity at 100 nM by KINOMEscan analysis relative to control
[7] = molecular target: T3, Serine/threonine-protein kinase LATS2 (Homo sapiens) (UniProt Q9NRM7); test: Inhibition of LATS2 (unknown origin) assessed as residual activity at 100 nM by KINOMEscan analysis relative to control
T3 sequence (whole entry): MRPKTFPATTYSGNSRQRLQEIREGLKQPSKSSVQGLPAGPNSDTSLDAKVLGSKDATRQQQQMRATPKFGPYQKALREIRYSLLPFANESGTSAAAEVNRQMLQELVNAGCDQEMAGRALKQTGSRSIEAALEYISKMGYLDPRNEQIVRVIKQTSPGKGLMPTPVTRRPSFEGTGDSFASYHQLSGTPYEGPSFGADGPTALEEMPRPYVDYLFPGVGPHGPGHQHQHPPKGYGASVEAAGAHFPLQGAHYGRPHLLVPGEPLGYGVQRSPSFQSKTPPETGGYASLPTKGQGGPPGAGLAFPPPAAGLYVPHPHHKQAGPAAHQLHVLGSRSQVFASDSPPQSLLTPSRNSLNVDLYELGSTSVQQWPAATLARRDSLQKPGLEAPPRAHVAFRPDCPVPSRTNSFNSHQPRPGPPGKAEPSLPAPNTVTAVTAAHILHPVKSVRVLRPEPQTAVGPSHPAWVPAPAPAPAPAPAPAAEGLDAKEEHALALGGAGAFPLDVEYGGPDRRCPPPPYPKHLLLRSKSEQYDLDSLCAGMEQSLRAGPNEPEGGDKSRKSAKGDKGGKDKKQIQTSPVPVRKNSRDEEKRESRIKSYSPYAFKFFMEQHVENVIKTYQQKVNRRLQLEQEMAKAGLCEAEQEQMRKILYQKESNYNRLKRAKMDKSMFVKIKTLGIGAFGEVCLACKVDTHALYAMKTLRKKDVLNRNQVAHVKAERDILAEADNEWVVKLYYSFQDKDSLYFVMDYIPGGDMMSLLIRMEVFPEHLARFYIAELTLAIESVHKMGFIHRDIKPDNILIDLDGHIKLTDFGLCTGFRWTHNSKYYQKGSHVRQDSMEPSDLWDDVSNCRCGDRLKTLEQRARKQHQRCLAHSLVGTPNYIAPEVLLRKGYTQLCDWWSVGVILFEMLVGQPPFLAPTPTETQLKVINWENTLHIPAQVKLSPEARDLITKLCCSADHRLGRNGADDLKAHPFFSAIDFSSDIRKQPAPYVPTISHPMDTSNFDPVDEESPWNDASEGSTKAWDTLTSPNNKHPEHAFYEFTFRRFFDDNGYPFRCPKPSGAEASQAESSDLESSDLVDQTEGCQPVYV

[8] = molecular target: Cyclin-dependent kinase 2 (Homo sapiens) (UniProt P24941); test: Inhibition of CDK2 (unknown origin) assessed as residual activity at 100 nM by KINOMEscan analysis relative to control

Chain of Death-associated protein kinase 1 (Homo sapiens) (P53355 whole entry, looked up): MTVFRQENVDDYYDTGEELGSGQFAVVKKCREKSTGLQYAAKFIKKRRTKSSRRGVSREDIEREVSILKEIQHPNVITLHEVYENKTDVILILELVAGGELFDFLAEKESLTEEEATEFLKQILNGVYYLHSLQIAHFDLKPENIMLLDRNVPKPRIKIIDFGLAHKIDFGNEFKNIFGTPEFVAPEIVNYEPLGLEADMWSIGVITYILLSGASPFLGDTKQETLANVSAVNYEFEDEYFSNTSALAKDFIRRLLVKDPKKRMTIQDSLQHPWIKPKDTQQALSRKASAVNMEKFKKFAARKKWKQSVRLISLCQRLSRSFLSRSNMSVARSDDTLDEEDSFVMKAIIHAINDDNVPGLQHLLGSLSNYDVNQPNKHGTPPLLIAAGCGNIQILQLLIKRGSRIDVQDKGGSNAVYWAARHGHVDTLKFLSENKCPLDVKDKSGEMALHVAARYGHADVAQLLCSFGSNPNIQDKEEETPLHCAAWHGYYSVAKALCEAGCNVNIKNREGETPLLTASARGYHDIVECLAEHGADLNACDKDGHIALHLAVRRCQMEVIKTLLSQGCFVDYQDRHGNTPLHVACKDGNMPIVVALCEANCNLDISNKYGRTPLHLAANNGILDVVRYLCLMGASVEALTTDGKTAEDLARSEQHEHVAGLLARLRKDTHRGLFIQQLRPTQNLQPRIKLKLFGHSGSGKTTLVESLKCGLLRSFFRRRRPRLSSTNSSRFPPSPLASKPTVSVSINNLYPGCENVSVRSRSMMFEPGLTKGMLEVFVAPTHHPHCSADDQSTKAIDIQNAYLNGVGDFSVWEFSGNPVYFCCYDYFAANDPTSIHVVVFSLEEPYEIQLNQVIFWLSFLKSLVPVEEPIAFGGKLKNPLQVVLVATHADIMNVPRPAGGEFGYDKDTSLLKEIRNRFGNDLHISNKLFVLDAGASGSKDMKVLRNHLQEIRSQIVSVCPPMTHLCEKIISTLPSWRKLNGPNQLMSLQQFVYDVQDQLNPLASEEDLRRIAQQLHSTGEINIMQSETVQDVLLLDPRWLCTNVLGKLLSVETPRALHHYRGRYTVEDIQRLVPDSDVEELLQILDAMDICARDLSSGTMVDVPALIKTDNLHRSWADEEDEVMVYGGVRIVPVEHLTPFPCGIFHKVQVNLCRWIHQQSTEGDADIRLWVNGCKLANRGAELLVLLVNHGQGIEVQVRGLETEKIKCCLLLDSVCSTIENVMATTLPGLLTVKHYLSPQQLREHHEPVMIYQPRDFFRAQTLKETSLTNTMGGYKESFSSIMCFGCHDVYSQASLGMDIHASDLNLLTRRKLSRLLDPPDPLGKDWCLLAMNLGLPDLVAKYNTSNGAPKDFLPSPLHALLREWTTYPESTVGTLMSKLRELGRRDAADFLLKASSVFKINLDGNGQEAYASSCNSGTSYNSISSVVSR
Chain of Serine/threonine-protein kinase 32C (Homo sapiens) (Q86UX6 whole entry): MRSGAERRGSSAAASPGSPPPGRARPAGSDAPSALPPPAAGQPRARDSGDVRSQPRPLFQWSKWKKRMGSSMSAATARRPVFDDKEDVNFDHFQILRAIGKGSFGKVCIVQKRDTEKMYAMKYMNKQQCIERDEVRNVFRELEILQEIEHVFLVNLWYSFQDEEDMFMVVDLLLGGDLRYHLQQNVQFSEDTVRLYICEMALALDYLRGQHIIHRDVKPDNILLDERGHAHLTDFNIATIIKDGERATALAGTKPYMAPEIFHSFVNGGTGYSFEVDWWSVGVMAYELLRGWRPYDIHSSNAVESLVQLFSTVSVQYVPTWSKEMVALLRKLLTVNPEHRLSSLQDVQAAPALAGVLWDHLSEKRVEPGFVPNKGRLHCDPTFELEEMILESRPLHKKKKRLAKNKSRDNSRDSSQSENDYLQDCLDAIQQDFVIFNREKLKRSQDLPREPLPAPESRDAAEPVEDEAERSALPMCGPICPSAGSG
Chain of Dual specificity tyrosine-phosphorylation-regulated kinase 1B (Homo sapiens) (Q9Y463 whole entry, looked up): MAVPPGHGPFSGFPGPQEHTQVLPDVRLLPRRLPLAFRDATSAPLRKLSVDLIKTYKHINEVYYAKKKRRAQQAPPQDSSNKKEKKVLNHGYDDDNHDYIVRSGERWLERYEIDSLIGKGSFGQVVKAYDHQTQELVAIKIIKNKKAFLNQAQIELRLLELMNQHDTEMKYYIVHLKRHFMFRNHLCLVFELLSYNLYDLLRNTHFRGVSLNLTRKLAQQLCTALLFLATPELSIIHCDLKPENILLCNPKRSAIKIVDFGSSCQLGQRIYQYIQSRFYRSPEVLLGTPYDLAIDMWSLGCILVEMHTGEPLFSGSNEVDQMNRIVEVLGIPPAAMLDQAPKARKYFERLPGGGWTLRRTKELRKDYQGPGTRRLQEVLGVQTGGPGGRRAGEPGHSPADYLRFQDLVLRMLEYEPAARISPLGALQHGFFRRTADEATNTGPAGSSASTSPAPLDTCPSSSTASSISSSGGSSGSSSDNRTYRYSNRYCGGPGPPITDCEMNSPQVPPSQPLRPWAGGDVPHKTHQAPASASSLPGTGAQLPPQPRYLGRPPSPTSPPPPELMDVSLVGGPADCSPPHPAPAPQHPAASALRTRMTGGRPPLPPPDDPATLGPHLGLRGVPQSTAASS
Chain of Phosphatidylinositol 4-phosphate 5-kinase type-1 alpha (Homo sapiens) (Q99755 whole entry): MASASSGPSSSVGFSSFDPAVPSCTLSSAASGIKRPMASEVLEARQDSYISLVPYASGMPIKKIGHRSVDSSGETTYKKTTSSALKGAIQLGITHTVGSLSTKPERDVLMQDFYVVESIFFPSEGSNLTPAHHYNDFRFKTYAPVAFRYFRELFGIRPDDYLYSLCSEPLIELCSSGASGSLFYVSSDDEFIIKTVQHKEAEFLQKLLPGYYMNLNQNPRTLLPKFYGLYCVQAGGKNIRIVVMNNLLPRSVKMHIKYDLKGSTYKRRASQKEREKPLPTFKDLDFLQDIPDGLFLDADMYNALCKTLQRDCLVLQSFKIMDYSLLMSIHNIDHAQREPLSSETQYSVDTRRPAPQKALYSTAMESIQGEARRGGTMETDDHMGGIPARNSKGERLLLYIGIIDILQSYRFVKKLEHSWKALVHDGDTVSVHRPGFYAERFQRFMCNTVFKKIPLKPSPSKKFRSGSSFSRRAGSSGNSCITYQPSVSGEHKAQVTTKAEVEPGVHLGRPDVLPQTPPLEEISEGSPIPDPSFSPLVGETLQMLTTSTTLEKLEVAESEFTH

In the case of `COc1cc2ncnc(N[C@H](C)c3cccc4ccccc34)c2cc1OC`, the Activity [1] is reported as 90%, the Activity [2] is reported as 100% and the Activity [3] is reported as 89%. It also gave an Activity [4] of 84%, an Activity [5] of 100% and an Activity [6] of 76%. It also gave an Activity [7] of 87% and an Activity [8] of 100%.
